Consider 1 compound from patent EP2468303A1, “Functionalized nucleic acids and particles comprising them for the treatment of HIV infections” (priority 2010, dated 2012).

The assay concerns pNL4.3 virus. Nature of the assay: Time-of-addition experiment in single-round infection assay. It is filed as cell-based, HIV-1. To be noted: Hela P4 cells, 100 nM, whatever the time of addition post-infection. An excerpt:
Antiviral activity was quantified using the above-described CPRG assay.

Turning to `Cc1nnc(C(=O)NC(C)(C)c2nc(C(=O)NCc3ccc(F)cc3)c(O)c(=O)n2C)o1` [raltegravir], the viral replication blocked is < 100%.
